Test results from paper PMC11178787, “Development of a natural product optimization strategy for inhibitors against MraY, a promising antibacterial target” (Nature Communications, 2024).
Converted amounts (≈) assume the structure as drawn. Like-named read-outs stand apart in the source and are kept apart here.

Tests used:
[1] = system: T1, E. faecium(VRE) ATCC 51559; assay: microbe, parasite or virus in culture; set-up: CLSI broth microdilution MIC in MHB-II, single trial; conditions: Enterococcus faecium, 18 h
T1 construct: ATCC 51559 (VRE)
Experimental: (§1) MICs were determined by a microdilution broth method as recommended by the CLSI with MHB-II. For MICs of stable analogues, a 2-fold dilution of each compound was prepared in DMSO at 100-fold of the final concentration. The strains were inoculated with 5 × 10^5 cfu/mL in 96-well plates (each 100 μL/well), and 1 μL of DMSO solutions of the samples were added (contained less than 1% DMSO). The plates were incubated at 37 °C for 18 h and then MICs were determined. MICs of stable analogues in Table 1 were the highest value in three trials. MICs in Supplementary Table 1 were determined in one trial.

[2] = system: T2, E. faecium ATCC 35667; assay: microbe, parasite or virus in culture; set-up: CLSI broth microdilution MIC in MHB-II, single trial; conditions: Enterococcus faecium, ATCC35667, 18 h
T2 construct: ATCC 35667
Experimental: as §1

[3] = system: T3, E. faecalis(VRE) ATCC 51299; assay: microbe, parasite or virus in culture; set-up: CLSI broth microdilution MIC in MHB-II, single trial; conditions: Enterococcus faecalis, 18 h
T3 construct: ATCC 51299 (VRE)
Experimental: as §1

[4] = system: T4, S. aureus ATCC 29213; assay: microbe, parasite or virus in culture; set-up: CLSI broth microdilution MIC in MHB-II, single trial; conditions: Staphylococcus aureus, ATCC29213, 18 h
T4 construct: ATCC 29213
Experimental: as §1

[5] = system: T5, Staphylococcus aureus MRSA JE2; assay: microbe, parasite or virus in culture; set-up: CLSI broth microdilution MIC in MHB-II, single trial; conditions: 18 h
T5 construct: JE2 (MRSA)
Experimental: as §1

[6] = system: T6, E. faecium(VRE) ATCC 51858; assay: microbe, parasite or virus in culture; set-up: CLSI broth microdilution MIC in MHB-II, single trial; conditions: Enterococcus faecium, 18 h
T6 construct: ATCC 51858 (VRE)
Experimental: as §1

[7] = system: T7, Staphylococcus aureus #2935; assay: microbe, parasite or virus in culture; set-up: CLSI broth microdilution MIC in MHB-II; conditions: Staphylococcus aureus, 18 h, read-out: MIC
T7 construct: #2935
Experimental: as §1

[8] = system: T8, Enterococcus faecalis 25; assay: microbe, parasite or virus in culture; set-up: CLSI broth microdilution MIC in MHB-II; conditions: Enterococcus faecalis, 25, 18 h, read-out: MIC
T8 construct: 25
Experimental: as §1

[9] = system: T9, Staphylococcus aureus #2110; assay: microbe, parasite or virus in culture; set-up: CLSI broth microdilution MIC in MHB-II; conditions: Staphylococcus aureus, 18 h, read-out: MIC
T9 construct: #2110
Experimental: as §1

[10] = system: T10, Enterococcus faecalis 22; assay: microbe, parasite or virus in culture; set-up: CLSI broth microdilution MIC in MHB-II; conditions: Enterococcus faecalis, 22, 18 h, read-out: MIC
T10 construct: 22
Experimental: as §1

[11] = system: T11, Enterococcus faecalis 21; assay: microbe, parasite or virus in culture; set-up: CLSI broth microdilution MIC in MHB-II; conditions: Enterococcus faecalis, 21, 18 h, read-out: MIC
T11 construct: 21
Experimental: as §1

[12] = system: T12, Enterococcus faecalis 27; assay: microbe, parasite or virus in culture; set-up: CLSI broth microdilution MIC in MHB-II; conditions: Enterococcus faecalis, 27, 18 h, read-out: MIC
T12 construct: 27
Experimental: as §1

[13] = system: T13, Staphylococcus aureus #1958; assay: microbe, parasite or virus in culture; set-up: CLSI broth microdilution MIC in MHB-II; conditions: Staphylococcus aureus, 18 h, read-out: MIC
T13 construct: #1958
Experimental: as §1

[14] = system: T14, Enterococcus faecalis 24; assay: microbe, parasite or virus in culture; set-up: CLSI broth microdilution MIC in MHB-II; conditions: Enterococcus faecalis, 24, 18 h, read-out: MIC
T14 construct: 24
Experimental: as §1

[15] = system: Enterococcus faecium 9; assay: microbe, parasite or virus in culture; set-up: CLSI broth microdilution MIC in MHB-II; conditions: Enterococcus faecium, 9, 18 h, read-out: MIC
Experimental: as §1

[16] = system: T15, Enterococcus faecium 10; assay: microbe, parasite or virus in culture; set-up: CLSI broth microdilution MIC in MHB-II; conditions: Enterococcus faecium, 10, 18 h, read-out: MIC
T15 construct: 10
Experimental: as §1

[17] = system: T16, Staphylococcus aureus #2933; assay: microbe, parasite or virus in culture; set-up: CLSI broth microdilution MIC in MHB-II; conditions: Staphylococcus aureus, 18 h, read-out: MIC
T16 construct: #2933
Experimental: as §1

[18] = system: T17, Staphylococcus aureus #2934; assay: microbe, parasite or virus in culture; set-up: CLSI broth microdilution MIC in MHB-II; conditions: Staphylococcus aureus, 18 h, read-out: MIC
T17 construct: #2934
Experimental: as §1

[19] = system: T18, Staphylococcus aureus #2310; assay: microbe, parasite or virus in culture; set-up: CLSI broth microdilution MIC in MHB-II; conditions: Staphylococcus aureus, 18 h, read-out: MIC
T18 construct: #2310
Experimental: as §1

[20] = system: T19, Staphylococcus aureus #2071; assay: microbe, parasite or virus in culture; set-up: CLSI broth microdilution MIC in MHB-II; conditions: Staphylococcus aureus, 18 h, read-out: MIC
T19 construct: #2071
Experimental: as §1

[21] = system: Enterococcus faecium 1; assay: microbe, parasite or virus in culture; set-up: CLSI broth microdilution MIC in MHB-II; conditions: Enterococcus faecium, 1, 18 h, read-out: MIC
Experimental: as §1

[22] = biological target: MraYSA (S. aureus MraY) (Staphylococcus aureus, UniProt Q2FZ93); assay: fluorescence assay of dansylated lipid I formation; type: biochemical
Chain of MraYSA (S. aureus MraY) (Q2FZ93 whole entry): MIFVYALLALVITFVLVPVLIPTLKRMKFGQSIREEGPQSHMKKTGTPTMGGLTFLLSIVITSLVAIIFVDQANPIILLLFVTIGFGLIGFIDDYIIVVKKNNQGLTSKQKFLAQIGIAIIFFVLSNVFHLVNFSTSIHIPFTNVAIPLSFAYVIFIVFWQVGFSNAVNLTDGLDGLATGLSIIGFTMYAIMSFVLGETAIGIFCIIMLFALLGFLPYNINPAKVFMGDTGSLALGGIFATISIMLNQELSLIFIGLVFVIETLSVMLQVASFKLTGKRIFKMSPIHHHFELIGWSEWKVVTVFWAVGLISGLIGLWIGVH

[23] = in vitro; set-up: WST-8 cell viability assay in HepG2 cells; conditions: human, hepg2 cells; read-out: IC50
Experimental: Cells were regularly passed to maintain exponential growth. HepG2 cells were sowed by 1.0 × 10^4 cells for each well in 96-well plate and cultured at 37 °C under 5% CO2 in air for 24 h. The cells were treated with a solution of test compounds in DMSO at various concentration and incubated at 37 °C under 5% CO2 in air for 24 h. After that, the WST-8 (Dojindo) cell proliferation assay was used. Cell viability was indicated as a percentage of the negative control (cells treated with DMSO only) and that value was fixed at 100%.

Row | SMILES | MIC [7] | MIC [8] | MIC [9] | MIC [10] | MIC [11] | MIC [12] | MIC [13] | MIC [14] | MIC [15] | MIC [16] | MIC [17] | MIC [18] | MIC [19] | MIC [20] | MIC [21] | IC50 [22] | CC50 at 24 h [23] | further results
1 | CCCCCCCCCCCCCCCC(=O)N[C@@H](CCCCN)C(=O)Nc1ccc(CN[C@H](C(=O)O)[C@H](O[C@@H]2O[C@H](CN)[C@@H](O)[C@H]2O)[C@H]2O[C@@H](n3ccc(=O)[nH]c3=O)[C@H](O)[C@@H]2O)cc1 [compound 5, analogue 5] | 1 µg/mL (≈ 1.09 µM) | 0.25 µg/mL (≈ 0.272 µM) | 1 µg/mL (≈ 1.09 µM) | 0.13 µg/mL (≈ 0.141 µM) | 0.5 µg/mL (≈ 0.543 µM) | 0.25 µg/mL (≈ 0.272 µM) | 1 µg/mL (≈ 1.09 µM) | 0.25 µg/mL (≈ 0.272 µM) | 0.25 µg/mL (≈ 0.272 µM) | 0.5 µg/mL (≈ 0.543 µM) | 0.5 µg/mL (≈ 0.543 µM) | 0.25 µg/mL (≈ 0.272 µM) | 1 µg/mL (≈ 1.09 µM) | 0.5 µg/mL (≈ 0.543 µM) | 1 µg/mL (≈ 1.09 µM) | 0.0031 µM | 22 µM | MIC ([1]; read-out: 5 MIC): 0.25 µg/mL (≈ 0.272 µM); MIC ([2]; read-out: 5 MIC): 0.25 µg/mL (≈ 0.272 µM); MIC ([3]; read-out: 5 MIC): 0.25 µg/mL (≈ 0.272 µM); MIC ([4]; read-out: 5 MIC): 0.5 µg/mL (≈ 0.543 µM); MIC ([5]; read-out: 5 MIC): 1 µg/mL (≈ 1.09 µM); MIC ([6]; read-out: 5 MIC): 1 µg/mL (≈ 1.09 µM)
2 | CCCCCCCCCCCCCCCC(=O)N[C@@H](CCCNC(=N)N)C(=O)Nc1cccc(CN[C@H](C(=O)O)[C@H](O[C@@H]2O[C@H](CN)[C@@H](O)[C@H]2O)[C@H]2O[C@@H](n3ccc(=O)[nH]c3=O)[C@H](O)[C@@H]2O)c1 [compound 8, analogue 8] | 2 µg/mL (≈ 2.11 µM) | 0.5 µg/mL (≈ 0.527 µM) | 2 µg/mL (≈ 2.11 µM) | 1 µg/mL (≈ 1.05 µM) | 1 µg/mL (≈ 1.05 µM) | 0.5 µg/mL (≈ 0.527 µM) | 2 µg/mL (≈ 2.11 µM) | 1 µg/mL (≈ 1.05 µM) | 1 µg/mL (≈ 1.05 µM) | 1 µg/mL (≈ 1.05 µM) | 1 µg/mL (≈ 1.05 µM) | 1 µg/mL (≈ 1.05 µM) | 2 µg/mL (≈ 2.11 µM) | 64 µg/mL (≈ 67.5 µM) | 1 µg/mL (≈ 1.05 µM) | 0.0018 µM | 23 µM | MIC ([1]; read-out: 8 MIC): 1 µg/mL (≈ 1.05 µM); MIC ([2]; read-out: 8 MIC): 0.5 µg/mL (≈ 0.527 µM); MIC ([3]; read-out: 8 MIC): 1 µg/mL (≈ 1.05 µM); MIC ([4]; read-out: 8 MIC): 1 µg/mL (≈ 1.05 µM); MIC ([5]; read-out: 8 MIC): 2 µg/mL (≈ 2.11 µM); MIC ([6]; read-out: 8 MIC): 2 µg/mL (≈ 2.11 µM)
